From PubChem BioAssay (NCI)
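Tested at 5 concentrations; 48 h exposure; 96-well plates; endpoints linearly interpolated, else capped at highest concentration. TGI: concentration producing complete growth inhibition.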

What was measured:
Assay in all cases: NCI tumour cell line growth inhibition, 48 h
OVCAR-5 ovarian = test system: OVCAR-5 ovarian
XF 498 CNS = test system: XF 498 CNS
SK-MEL-2 melanoma = test system: SK-MEL-2 melanoma
MOLT-4 leukemia = test system: MOLT-4 leukemia
RPMI-8226 leukemia = test system: RPMI-8226 leukemia
HCT-116 colon = test system: HCT-116 colon
UO-31 renal = test system: UO-31 renal
A498 renal = test system: A498 renal
SK-OV-3 ovarian = test system: SK-OV-3 ovarian
SNB-75 CNS = test system: SNB-75 CNS
LOX IMVI melanoma = test system: LOX IMVI melanoma
U251 CNS = test system: U251 CNS
CAKI-1 renal = test system: CAKI-1 renal
A549 NSCLC = test system: A549 NSCLC
HCT-15 colon = test system: HCT-15 colon
NCI-H460 lung = test system: NCI-H460 lung
SW-620 colon = test system: SW-620 colon
P388/ADR leukemia = test system: P388/ADR leukemia
HCC-2998 colon = test system: HCC-2998 colon
UACC-62 melanoma = test system: UACC-62 melanoma
SNB-19 CNS = test system: SNB-19 CNS
HOP-18 NSCLC = test system: HOP-18 NSCLC
DMS 273 small cell lung = test system: DMS 273 small cell lung
M19-MEL melanoma = test system: M19-MEL melanoma
EKVX NSCLC = test system: EKVX NSCLC
SN12K1 renal = test system: SN12K1 renal
SK-MEL-5 melanoma = test system: SK-MEL-5 melanoma
UACC-257 melanoma = test system: UACC-257 melanoma
HOP-62 NSCLC = test system: HOP-62 NSCLC
NCI/ADR-RES ovarian = test system: NCI/ADR-RES ovarian
NCI-H23 lung = test system: NCI-H23 lung
KM12 colon = test system: KM12 colon
SF-295 CNS = test system: SF-295 CNS
OVCAR-8 ovarian = test system: OVCAR-8 ovarian
P388 leukemia = test system: P388 leukemia
CCRF-CEM leukemia = test system: CCRF-CEM leukemia
HOP-92 NSCLC = test system: HOP-92 NSCLC
OVCAR-3 ovarian = test system: OVCAR-3 ovarian
SK-MEL-28 melanoma = test system: SK-MEL-28 melanoma
OVCAR-4 ovarian = test system: OVCAR-4 ovarian
SNB-78 CNS = test system: SNB-78 CNS
IGROV1 ovarian = test system: IGROV1 ovarian
DLD-1 colon = test system: DLD-1 colon
HL-60(TB) leukemia = test system: HL-60(TB) leukemia
RXF 393 renal = test system: RXF 393 renal
K-562 leukemia = test system: K-562 leukemia
SF-539 CNS = test system: SF-539 CNS
KM20L2 colon = test system: KM20L2 colon
MALME-3M melanoma = test system: MALME-3M melanoma
SN12C renal = test system: SN12C renal
COLO 205 colon = test system: COLO 205 colon
SF-268 CNS = test system: SF-268 CNS
NCI-H522 lung = test system: NCI-H522 lung
MCF7 breast = test system: MCF7 breast
HT29 colon = test system: HT29 colon
NCI-H226 lung = test system: NCI-H226 lung

CC1C(=O)CC(c2cccs2)N(N=O)C1c1cccs1 (stereo unspecified)
TGI (OVCAR-5 ovarian): > 100 µM
TGI (XF 498 CNS): 45.3 µM
TGI (SK-MEL-2 melanoma): > 92.3 µM
TGI (MOLT-4 leukemia): 73.7 µM
TGI (RPMI-8226 leukemia): 67.2 µM
TGI (HCT-116 colon): > 100 µM
TGI (UO-31 renal): > 100 µM
TGI (A498 renal): > 70.9 µM
TGI (SK-OV-3 ovarian): > 81.2 µM
TGI (SNB-75 CNS): > 74 µM
TGI (LOX IMVI melanoma): > 100 µM
TGI (U251 CNS): > 100 µM
TGI (CAKI-1 renal): > 100 µM
TGI (A549 NSCLC): > 100 µM
TGI (HCT-15 colon): > 100 µM
TGI (NCI-H460 lung): > 100 µM
TGI (SW-620 colon): > 100 µM
TGI (P388/ADR leukemia): 40.8 µM
TGI (HCC-2998 colon): > 100 µM
TGI (UACC-62 melanoma): > 100 µM
TGI (SNB-19 CNS): > 100 µM
TGI (HOP-18 NSCLC): > 100 µM
TGI (DMS 273 small cell lung): > 100 µM
TGI (M19-MEL melanoma): > 100 µM
TGI (EKVX NSCLC): > 100 µM
TGI (SN12K1 renal): > 100 µM
TGI (SK-MEL-5 melanoma): > 100 µM
TGI (UACC-257 melanoma): > 100 µM
TGI (HOP-62 NSCLC): > 100 µM
TGI (NCI/ADR-RES ovarian): > 100 µM
TGI (NCI-H23 lung): > 100 µM
TGI (KM12 colon): > 100 µM
TGI (SF-295 CNS): > 100 µM
TGI (OVCAR-8 ovarian): > 100 µM
TGI (P388 leukemia): 43.1 µM
TGI (CCRF-CEM leukemia): > 100 µM
TGI (HOP-92 NSCLC): 83.3 µM
TGI (OVCAR-3 ovarian): > 79.5 µM
TGI (SK-MEL-28 melanoma): > 100 µM
TGI (OVCAR-4 ovarian): > 100 µM
TGI (SNB-78 CNS): > 85.2 µM
TGI (IGROV1 ovarian): > 100 µM
TGI (DLD-1 colon): > 100 µM
TGI (HL-60(TB) leukemia): > 72.2 µM
TGI (RXF 393 renal): 81.1 µM
TGI (K-562 leukemia): 27.6 µM
TGI (SF-539 CNS): > 100 µM
TGI (KM20L2 colon): > 100 µM
TGI (MALME-3M melanoma): > 100 µM
TGI (SN12C renal): > 100 µM
TGI (COLO 205 colon): > 100 µM
TGI (SF-268 CNS): > 100 µM
TGI (NCI-H522 lung): > 100 µM
TGI (MCF7 breast): 88.5 µM
TGI (HT29 colon): > 59.1 µM
TGI (NCI-H226 lung): > 100 µM
